Experimental data from publication PMC3899110 (Methods (San Diego, Calif.), 2013).
Read-outs that look alike come from different tables or passages of the source.

Key:
[1] = molecular target: T1, LYP (Homo sapiens, UniProt Q9Y2R2); experiment: LYP inhibition, follow-up of the 1536-well HTS, pCAP or OMFP substrate; format: biochemical
T1 sequence (Q9Y2R2 24-289 limits assumed): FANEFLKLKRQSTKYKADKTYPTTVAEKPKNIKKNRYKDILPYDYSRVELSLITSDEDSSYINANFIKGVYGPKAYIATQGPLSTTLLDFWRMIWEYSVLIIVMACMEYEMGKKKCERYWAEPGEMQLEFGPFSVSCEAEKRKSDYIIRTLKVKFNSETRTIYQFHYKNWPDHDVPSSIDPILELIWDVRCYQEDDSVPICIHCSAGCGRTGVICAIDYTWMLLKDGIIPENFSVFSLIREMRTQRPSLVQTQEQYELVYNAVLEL

[2] = molecular target: T1, LYP; conditions: Spectrum collection screen, cited from earlier work
[3] = molecular target: T1, LYP; format: biochemical; conditions: for kcat: pH 6.5

Molecule	IC50 ([1]; read-out: IC50, OMFP substrate, assayed using the OMFP substrate)	IC50 ([1]; read-out: IC50, pCAP substrate, assayed using the pCAP substrate)	inhibition of LYP activity, DiFMUP-based screen ([2]; DiFMUP as substrate)	inhibition of LYP activity, peptide-based screen ([2]; peptide 2 as substrate)	Km [3]	kcat/Km [3]	kcat [3]
O=C(O)COc1ccc(/C=N/NC(=O)c2ccc(-c3csc(Nc4ccc(Cl)cc4)n3)cc2)cc1 [CID9595032]	1.5 µM	0.53 µM	–	–	–	–	–
Cc1ccc(C(=O)Nc2ccc(S(=O)(=O)O)c3cc(S(=O)(=O)O)cc(S(=O)(=O)O)c23)cc1NC(=O)c1cccc(NC(=O)Nc2cccc(C(=O)Nc3cc(C(=O)Nc4ccc(S(=O)(=O)O)c5cc(S(=O)(=O)O)cc(S(=O)(=O)O)c45)ccc3C)c2)c1 [suramin]	–	–	~40%	nearly all	–	–	–
Ac-ARLIEDNE-pCAP-TAREG-NH2 [Peptide 2]	–	–	–	–	200 ± 60 µM	27,000,000 M^−1s^−1	5400 ± 1000 s⁻¹
Ac-ARLIEDNE-pY-TAREG-NH2 [Peptide 2a]	–	–	–	–	130 ± 20 µM	52,000,000 M^−1s^−1	6700 ± 400 s⁻¹
